Data: ChEMBL document CHEMBL1201862, “PubChem BioAssay data set” (2004)
Active and inactive are the calls of the source.

Assays:
Protein RecA = target: T1, Protein RecA (Mycobacterium tuberculosis, UniProt P9WHJ3); assay: Fluorescence Cell-Free Homogeneous Dose Retest to Identify Inhibitors of RecA-Intein Splicing Activity. [Related pubchem assays (depositor defined):AID2097, AID2223, AID489010, AID492950]; assay type: functional
T1 sequence (P9WHJ3 whole entry): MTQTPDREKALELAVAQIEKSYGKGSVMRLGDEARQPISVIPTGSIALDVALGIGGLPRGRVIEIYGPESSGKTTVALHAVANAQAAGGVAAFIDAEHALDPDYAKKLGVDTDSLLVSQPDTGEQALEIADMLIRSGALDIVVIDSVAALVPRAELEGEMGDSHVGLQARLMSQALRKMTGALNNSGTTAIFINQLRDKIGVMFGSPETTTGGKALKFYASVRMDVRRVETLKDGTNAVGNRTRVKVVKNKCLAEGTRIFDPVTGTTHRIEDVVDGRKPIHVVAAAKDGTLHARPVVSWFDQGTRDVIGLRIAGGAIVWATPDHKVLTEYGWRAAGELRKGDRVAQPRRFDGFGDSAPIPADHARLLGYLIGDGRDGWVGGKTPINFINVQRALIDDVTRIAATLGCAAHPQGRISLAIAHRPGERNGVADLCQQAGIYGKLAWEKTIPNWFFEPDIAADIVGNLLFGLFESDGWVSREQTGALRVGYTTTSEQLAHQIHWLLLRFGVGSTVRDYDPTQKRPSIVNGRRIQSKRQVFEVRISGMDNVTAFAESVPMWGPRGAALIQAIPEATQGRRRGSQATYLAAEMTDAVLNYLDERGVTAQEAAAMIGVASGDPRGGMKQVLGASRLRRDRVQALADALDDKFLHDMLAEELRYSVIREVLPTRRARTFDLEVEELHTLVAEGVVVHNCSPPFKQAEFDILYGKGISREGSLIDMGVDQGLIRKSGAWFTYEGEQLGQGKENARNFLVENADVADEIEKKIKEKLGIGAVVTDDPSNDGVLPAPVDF

[1] = target: T2, Replicative DNA helicase DnaB (Mycobacterium tuberculosis, UniProt P9WMR3); assay: DnaB intein splicing inhibitors, dose response, biochemical, cell-free fluorescence (AID 449749); assay type: functional
T2 sequence (P9WMR3 whole entry): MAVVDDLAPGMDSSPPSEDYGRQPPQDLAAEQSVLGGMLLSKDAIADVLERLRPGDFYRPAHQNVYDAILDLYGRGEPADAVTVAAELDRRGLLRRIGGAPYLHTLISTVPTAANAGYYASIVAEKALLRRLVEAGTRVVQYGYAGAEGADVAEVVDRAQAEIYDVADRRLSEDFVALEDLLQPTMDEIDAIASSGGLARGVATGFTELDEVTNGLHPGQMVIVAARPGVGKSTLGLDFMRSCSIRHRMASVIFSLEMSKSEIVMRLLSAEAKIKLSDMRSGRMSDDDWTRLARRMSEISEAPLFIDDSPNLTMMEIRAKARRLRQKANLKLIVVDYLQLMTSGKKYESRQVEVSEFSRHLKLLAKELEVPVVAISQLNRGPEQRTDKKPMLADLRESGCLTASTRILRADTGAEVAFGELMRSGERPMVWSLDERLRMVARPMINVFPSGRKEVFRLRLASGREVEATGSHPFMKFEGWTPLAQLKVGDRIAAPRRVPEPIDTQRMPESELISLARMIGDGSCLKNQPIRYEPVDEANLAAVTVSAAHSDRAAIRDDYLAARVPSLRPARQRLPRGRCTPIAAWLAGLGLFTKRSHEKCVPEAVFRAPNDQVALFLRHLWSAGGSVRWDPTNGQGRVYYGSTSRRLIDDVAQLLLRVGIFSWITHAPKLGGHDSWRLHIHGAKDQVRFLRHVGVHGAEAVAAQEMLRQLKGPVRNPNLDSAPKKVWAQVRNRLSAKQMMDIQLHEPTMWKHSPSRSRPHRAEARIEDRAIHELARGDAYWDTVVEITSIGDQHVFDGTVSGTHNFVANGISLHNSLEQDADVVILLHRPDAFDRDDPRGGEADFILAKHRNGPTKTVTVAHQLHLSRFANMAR

[2] = target: T3, Zinc finger protein mex-5 (Caenorhabditis elegans, UniProt Q9XUB2); assay: potency of MEX-5 RNA-binding blockers – biochemical, C. elegans, fluorescence polarization, dose response (AID 1960)
T3 sequence (Q9XUB2 whole entry): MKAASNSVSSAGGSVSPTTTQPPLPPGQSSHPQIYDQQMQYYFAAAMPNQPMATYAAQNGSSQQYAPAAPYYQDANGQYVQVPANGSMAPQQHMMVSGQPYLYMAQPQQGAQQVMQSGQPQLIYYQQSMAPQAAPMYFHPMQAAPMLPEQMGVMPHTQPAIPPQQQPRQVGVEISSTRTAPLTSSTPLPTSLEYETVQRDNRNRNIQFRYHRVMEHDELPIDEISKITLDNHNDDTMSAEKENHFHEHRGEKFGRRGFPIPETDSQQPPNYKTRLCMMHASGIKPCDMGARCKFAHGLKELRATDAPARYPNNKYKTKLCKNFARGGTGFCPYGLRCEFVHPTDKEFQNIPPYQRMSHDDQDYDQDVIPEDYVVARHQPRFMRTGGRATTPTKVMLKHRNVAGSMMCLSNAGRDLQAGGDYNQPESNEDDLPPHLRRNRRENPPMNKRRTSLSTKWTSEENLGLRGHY

[3] = target: T4, RNA-binding protein pos-1 (Caenorhabditis elegans, UniProt G5EF15); assay: disruptors of C. elegans POS-1 RNA interaction – biochemical, fluorescence polarization, dose response (AID 1964);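 also: purified POS-1 fused to maltose binding protein made in E. coli; potency of compounds blocking POS-1 binding to fluorescent RNA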
T4 sequence (G5EF15 whole entry): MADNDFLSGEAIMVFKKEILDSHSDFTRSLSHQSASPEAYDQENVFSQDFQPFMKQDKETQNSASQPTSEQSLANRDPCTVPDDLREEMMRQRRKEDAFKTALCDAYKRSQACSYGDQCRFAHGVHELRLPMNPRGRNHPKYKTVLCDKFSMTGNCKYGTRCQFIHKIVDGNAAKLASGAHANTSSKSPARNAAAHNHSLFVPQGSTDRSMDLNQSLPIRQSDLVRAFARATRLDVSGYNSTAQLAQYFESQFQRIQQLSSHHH

[4] = NIH-3T3 fibroblast cytotoxicity, dose response, cytotoxicity control, cell-based, fluorescence, Alamar Blue, secondary assay (AID 2327); assay type: functional;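 also: NIH-3T3 mouse fibroblasts cultured with fluconazole at 8 µg/mL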
[5] = reduction of Shn3 3'UTR-driven luciferase in osteoblasts – cell-based, Clone20 osteoblasts, firefly luciferase, cherry-picked, dose response (AID 624132); assay type: functional;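 also: firefly luciferase luminescence from reporter carrying the Shn3 3'UTR in osteoblasts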
[6] = non-specific 3'UTR reporter inhibition in Clone20-Shn3RL – cell-based, Renilla luciferase, cherry-picked, counter-screen for Shn3 inhibitor project, dose response (AID 624133); assay type: functional
[7] = target: T5, Heat shock factor protein 1 (Mus musculus, UniProt P38532); assay: decrease of HSF1-responsive luciferase luminescence – cell-based, NIH3T3, dose retest, confirmation (AID 2382); assay type: functional;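 also: NIH3T3 fibroblasts with HSF1-driven luciferase reporter stressed by proteasome inhibitor MG132; luminescence from HSF1-driven luciferase expression after 8 hours of MG132 stress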
T5 sequence (P38532 whole entry): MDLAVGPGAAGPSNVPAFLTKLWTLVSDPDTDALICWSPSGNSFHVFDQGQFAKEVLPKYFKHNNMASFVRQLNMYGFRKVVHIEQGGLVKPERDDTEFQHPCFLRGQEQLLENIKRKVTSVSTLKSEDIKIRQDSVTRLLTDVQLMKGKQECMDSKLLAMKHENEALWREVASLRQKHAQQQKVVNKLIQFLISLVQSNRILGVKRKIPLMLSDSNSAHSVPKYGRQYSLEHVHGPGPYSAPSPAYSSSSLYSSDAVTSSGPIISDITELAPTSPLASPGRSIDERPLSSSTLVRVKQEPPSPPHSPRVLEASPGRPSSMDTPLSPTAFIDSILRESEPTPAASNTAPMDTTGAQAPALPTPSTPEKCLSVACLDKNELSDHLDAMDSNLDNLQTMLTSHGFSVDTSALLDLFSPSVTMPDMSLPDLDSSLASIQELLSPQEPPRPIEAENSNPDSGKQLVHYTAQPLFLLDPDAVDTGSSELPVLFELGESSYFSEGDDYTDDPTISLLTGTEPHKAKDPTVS

[8] = viability of uninfected HEp-2 cells – cell-based, HTS, cytotoxicity control for RSV inhibitor project, dose response (AID 2410); assay type: functional; conditions: human respiratory syncytial virus
[9] = tested on: Streptococcus sp. 'group A'; assay: Streptococcus pyogenes SK(-)GAS viability under kanamycin – luminescence, BacTiterGlo, confirmation, counter-screen for streptokinase expression inhibitor project, dose response (AID 1900); assay type: functional, organism-based
Streptococcus = assay: GAS UMAA2166 growth inhibition – luminescence, BacTiterGlo, counter-screen for streptokinase expression inhibitor project, dose response (AID 1915); assay type: functional, organism-based;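 also: potency for reduction of bacterial viability or growth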
Streptokinase A = target: T6, Streptokinase A (Streptococcus pyogenes serotype M1, UniProt P10520); assay: viability-normalized secreted streptokinase activity reduction – plasminogen activation absorbance, OD405, dose response (AID 1914); assay type: functional, Streptococcus pyogenes M1 GAS;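 also: secreted streptokinase activity via plasminogen activation per viability signal from cell pellet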
T6 sequence (P10520 whole entry): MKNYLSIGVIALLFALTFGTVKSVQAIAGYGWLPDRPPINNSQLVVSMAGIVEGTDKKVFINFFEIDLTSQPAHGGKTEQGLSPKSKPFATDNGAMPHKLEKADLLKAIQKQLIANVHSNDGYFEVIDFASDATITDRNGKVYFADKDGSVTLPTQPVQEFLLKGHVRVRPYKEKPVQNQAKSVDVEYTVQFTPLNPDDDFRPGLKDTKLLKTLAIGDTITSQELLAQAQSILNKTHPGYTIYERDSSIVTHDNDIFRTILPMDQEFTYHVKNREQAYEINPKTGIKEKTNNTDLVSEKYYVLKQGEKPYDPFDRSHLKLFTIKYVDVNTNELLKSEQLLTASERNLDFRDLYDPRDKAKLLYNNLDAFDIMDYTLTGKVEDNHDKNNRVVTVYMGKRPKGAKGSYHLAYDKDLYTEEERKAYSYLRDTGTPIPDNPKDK

[10] = Luminescence Cell-Based Dose Response HTS to Identify Activators of Luciferase Translation or Activity in H4 […] Cells. [Related pubchem assays: 1829 (Project Summary), 1814 (Primary HTS)]; assay type: functional
H4 = assay: Luminescence Cell-Based Dose Response HTS to Identify Activators of 5'UTR Stem-Loop Driven Prion Protein mRNA Translation in H4 Neuroglioblastoma Cells. [Related pubchem assays: 1829 (Project Summary), 1814 (Primary HTS)]; assay type: functional; conditions: Homo sapiens

Cc1ccc([N+](=O)[O-])cc1S(=O)(=O)N(C(=O)c1ccncc1)c1ccc2oc3c(c2c1)CCCC3
EC50 (Protein RecA): 10.8 µM (active) | AC50 [1]: 42 µM (active)

Cc1c(-c2nn(C)c(=O)c3ccccc23)oc2ccc(F)cc2c1=O
EC50 (Protein RecA): 2.51 µM (active) | AC50 [1]: 3.86 µM (active)

Cc1ccc(C2C(C#N)=C(N)Oc3[nH]nc(-c4cccnc4)c32)o1 (centres undefined)
EC50 (Protein RecA): 6.46 µM (active) | AC50 [1]: 25.6 µM (active)

CCCCC1=CC2=C(c3ccco3)C(=O)C(C)(OC(=O)c3ccc(OC)cc3)C(=O)C2=CN1C1CCCC1 (centres undefined)
EC50 [2]: 14.3 µM (active) | EC50 [3]: 16 µM (active)

CC(=O)Nc1ccc(NC(=O)CSc2ccc3nnc(CCNS(=O)(=O)c4ccc(C)cc4)n3n2)cc1
EC50 [4]: > 160 µM (inactive)

COCCN1Cc2cccc(C(=O)Nc3ccc4c(c3)OCCO4)c2C1=O
AC50 [5]: 27.1 µM (active) | AC50 [6]: 19.1 µM (active) | EC50 [7]: 11.6 µM (active)

c1ccc(-c2ccc(C3=Nn4c(nnc4-c4cccs4)SC3)cc2)cc1
CC50 [8]: 16.6 µM (active)

COc1ccc(C2C(C#N)=C(N)OC3=C2C(=O)CC(C)(C)C3)cc1OC (centres undefined)
EC50 [2]: > 300 µM (not active) | EC50 [3]: > 300 µM (not active)

CCc1cc(C(=O)c2ccc(C)cc2)c(NC(=O)CCl)s1
EC50 (Protein RecA): 1.07 µM (active) | AC50 [1]: 3.98 µM (active)

C=CC/N=C1/S/C(=C/c2cccc([N+](=O)[O-])c2)C(=O)N1CC=C
CC50 [8]: 28 µM (active)

Cc1ccc(C)c(N2CCN(S(=O)(=O)c3ccc(-c4cc(C)no4)s3)CC2)c1
CC50 [8]: > 50 µM (active)

O=C1CCSc2ccc(Cl)cc2N1Cc1ccc(Cl)cc1
EC50 [9]: 7.8 µM (active) | EC50 (Streptococcus): 49.5 µM (active) | CC50 [8]: 23.4 µM (active) | EC50 (Streptokinase A): 18.4 µM (active)

COC(=O)CC1=NN(c2ccccc2)C(=O)C1
EC50 (Protein RecA): 4.42 µM (active) | AC50 [1]: 13.2 µM (active)

O=S(=O)(c1ccccc1F)N1CCC(c2nc(O)c3nnn(Cc4ccc(F)cc4)c3n2)CC1
CC50 [8]: 27 µM (active)

CC(C)(c1ccccc1)c1ccc(OCC2CO2)cc1 (centres undefined)
EC50 (Protein RecA): 11.9 µM (active) | AC50 [1]: 10 µM (active)

CN(CC(=O)Nc1ccc(N2CCOCC2)cc1)CC(=O)Nc1cccc(C#N)c1
EC50 (Protein RecA): > 380 µM (inactive) | AC50 [1]: 199 µM (active)

CCSC1=NC(/C=C/c2ccc(Cl)cc2Cl)=CC(C)(C)N1
CC50 [8]: 18 µM (active)

O=C(CNC(=O)c1ccc(F)cc1)c1ccc(Cl)cc1
EC50 [10]: 0.717 µM (active) | EC50 (H4): 79 µM (active)

CN1C(=O)N(C)c2cccc3cccc1c23
CC50 [8]: 22.5 µM (active)

CCc1ccc(Nc2nnc(SCc3cc(=O)n4ccsc4n3)s2)cc1
CC50 [8]: 26.4 µM (active)

Cc1nn(Cc2ccccc2)c2c1C(c1ccccc1)C(C#N)=C(N)O2 (centres undefined)
EC50 (Protein RecA): 3.64 µM (active) | AC50 [1]: 8.53 µM (active)

Cc1cc(NC(=O)COC(=O)[C@@H](NS(=O)(=O)c2ccc(Br)cc2)C(C)C)no1
EC50 [4]: > 150 µM (inactive)

Cc1ccc(S(=O)(=O)N2CCN(C(=O)c3ccc(N4CCCCC4)c([N+](=O)[O-])c3)CC2)cc1
CC50 [8]: > 50 µM (active)

Cn1nc(C(F)(F)F)c2cc(C(=O)Nc3ccc(Cl)cc3)sc21
CC50 [8]: 21.4 µM (active)

O=C(CSC1=NCCS1)Nc1ccc(S(=O)(=O)NC2CCCCC2)cc1
EC50 (Protein RecA): 13.3 µM (active)

CN(c1ccccc1)S(=O)(=O)c1cccc(NC(=O)c2cccc(C#N)c2)c1
CC50 [8]: 16.1 µM (active)

COC(=O)Cc1n[nH]c2c1C(c1ccc(O)c(OC)c1)C(C#N)=C(N)O2 (centres undefined)
EC50 (Protein RecA): 2.88 µM (active) | AC50 [1]: 7.51 µM (inconclusive)
